Experimental data as given in paper PMC2900060, “Antioxidant and hepatoprotective effects of the methanol extract of the leaves of Satureja macrostema” (Pharmacognosy Magazine, 2010).
≈ marks a conversion by molar mass, not a printed value.

What was measured:
[1] = Inhibition of DPPH radical; conditions: concentration 100 μg/ml (table head prints mg/ml for SM)
Experimental: The free radical scavenging activity of the extract was analyzed by the DPPH (1,1-- diphenyl-- 2--picryl hydrazyl) assay.[10] A total of 2 ml of the test extract, at concentrations ranging from 1 μg/ml to 100 μg/ml each, was mixed with 1 ml of 0.5 mM DPPH (in methanol). The absorbance at 517 nm was taken after 30 min of incubation in the dark at room temperature. The experiment was done in triplicate. The percentage antioxidant activity was calculated as follows: %Antioxidant Activity [AA] = l00 --[ { (Abssample -- Absblank) X 100 }/Abs ml of methanol plus 2.0 ml of the extract was used as the blank while 1.0 ml of the 0.3 mM DPPH solution plus 2.0 ml of methanol was used as the negative control. Ascorbic acid was used as the reference standard.

[2] = Iron-chelating activity (ferrozine); conditions: Fe2+-ferrozine, Table 2
Experimental: After 5 min incubation, the reaction was initiated by 1.0 ml of 5.0 mM ferrozine. After 10 min of equilibrium, the absorbance at 562 nm was recorded. The controls contained all reaction reagents except extracts or positive control substance. Three experiments were performed and the average result was adopted. The iron-chelating activities were calculated from the absorbance of the control (Ac) and of the sample (As) using the following equation: Inhibition(%) = Ac −As × 100 Ac

[3] = Inhibition of superoxide anion radical (NBT/NADH/PMS); conditions: concentration 50 μg/ml
Experimental: Measurement of superoxide anion scavenging activity of SM was performed based on the method described by […][11] and slightly modified. About 1 ml of nitroblue tetrazolium (NBT) solution containing 156 μM NBT which is dissolved in 1.0 ml of phosphate buffer (100 mM, pH 7.4), 1 ml of NADH solution containing 468 μM of NADH which is dissolved in 1 ml of phosphate buffer (100 mM, pH 7.4) and 0.1 ml of various concentrations of SM and the reference compounds (5, 10, 25, 50 and 100 μg) were mixed and the reaction started by adding l00 μl of phenazine methosulphate (PMS) solution containing 60 μM of PMS l00 μl of phosphate buffer (100 mM, pH 7.4). The reaction mixture was incubated at 25°C for 5 min and the absorbance at 560 nm was measured against the control samples. All the tests were performed in triplicate and the results were averaged. The percentage decrease in absorbance was calculated.[10] Quercetine was used as the standard.

[4] = Inhibition of nitric oxide radical (sodium nitroprusside, Griess reaction); conditions: concentration 50 μg/ml
Experimental: Nitric oxide generated from sodium nitroprusside in aqueous solution at physiological pH interacts with oxygen to produce nitrite ions, which were measured by the Griess reaction.[1213] The reaction mixture (3 ml) containing sodium nitroprusside (10 Mm) in phosphate buffered saline (PES) and SM and the reference compound in different concentrations (5, 10, 25, 50 and 100 μg) were incubated at 25°C for 150 min. In each 30 min, 0.5 ml of the incubated sample was removed and 0.5 ml of the Griess reagent (1% sulfanilamide, 0.1% naphthyl ethylene diamine dihydrochloride in 2% H3PO4) was added. The absorbance of the chromophore formed was measured at 546 nm. All the tests were performed in triplicate and the results were averaged. BHT was used as the reference compound. All the tests were performed in triplicate and the results were averaged. The percentage decrease in absorbance was calculated.[10] Quercetine was used as the standard.

Compound	DPPH scavenging [1]	DPPH scavenging ([1]; listed as ascorbic acid)	IC50 Ion-chelating [2]	Superoxide anion scavenging [3]	Nitric oxide scavenging [4]
O=C1O[C@H]([C@@H](O)CO)C(O)=C1O [Ascorbic acid]	97 ± 0.52 %	97%	49.3 mg/mL (≈ 280 mM)	–	–
Cc1cc(C(C)(C)C)c(O)c(C(C)(C)C)c1 [BHT]	–	–	46.6 mg/mL (≈ 211 mM)	–	–
O=c1c(O)c(-c2ccc(O)c(O)c2)oc2cc(O)cc(O)c12 [Quercetin]	–	–	–	90.87 ± 0.43 %	93.8 ± 0.98 %
